The source of these data is ChEMBL document CHEMBL5244239, “Penicillin binding protein 2a: An overview and a medicinal chemistry perspective” (Eur J Med Chem, 2020).

The target of one assay is T1, MecA (Staphylococcus aureus, UniProt Q7DHH4).
T1 sequence (Q7DHH4 whole entry): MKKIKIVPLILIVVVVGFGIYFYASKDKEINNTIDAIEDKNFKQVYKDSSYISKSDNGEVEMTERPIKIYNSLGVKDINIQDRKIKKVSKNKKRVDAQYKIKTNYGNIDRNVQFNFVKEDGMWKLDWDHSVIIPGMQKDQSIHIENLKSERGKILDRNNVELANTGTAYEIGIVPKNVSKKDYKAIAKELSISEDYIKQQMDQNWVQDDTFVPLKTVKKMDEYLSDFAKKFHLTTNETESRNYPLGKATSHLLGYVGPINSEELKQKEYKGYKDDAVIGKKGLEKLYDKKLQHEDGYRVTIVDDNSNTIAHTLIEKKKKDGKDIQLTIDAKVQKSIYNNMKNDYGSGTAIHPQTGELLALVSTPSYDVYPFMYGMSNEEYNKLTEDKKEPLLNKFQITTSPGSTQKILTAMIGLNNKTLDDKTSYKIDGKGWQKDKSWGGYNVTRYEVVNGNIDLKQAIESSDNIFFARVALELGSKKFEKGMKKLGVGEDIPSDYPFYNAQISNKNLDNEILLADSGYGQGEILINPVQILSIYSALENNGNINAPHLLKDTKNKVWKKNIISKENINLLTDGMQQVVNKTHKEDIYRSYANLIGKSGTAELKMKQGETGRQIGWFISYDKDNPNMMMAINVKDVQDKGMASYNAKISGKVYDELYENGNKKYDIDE
Briefly: Inhibition of Staphylococcus aureus PBP2a.

Assay [1] concerns Staphylococcus aureus. The assay is described as follows: Antibacterial activity against methicillin resistant Staphylococcus aureus ATCC 43300. Type of assay: functional.
The subject of assay [2] is Staphylococcus aureus. The assay is described as follows: Antibacterial activity against methicillin resistant Staphylococcus aureus PL 1. The assay is classed as functional.
The test system of assay [3] is Staphylococcus aureus. Briefly: Potentiation of oxacillin against methicillin resistant Staphylococcus aureus assessed as fold increase in oxacillin activity. Type of assay: functional.
A further assay relates to Enterococcus faecium. The assay is described as follows: Antibacterial activity against vancomycin-resistant Enterococcus faecium. Type of assay: functional.
Assay [4] deals with Staphylococcus aureus. Briefly: Antibacterial activity against methicillin resistant Staphylococcus aureus. Type of assay: functional.
Assay [5] relates to Staphylococcus aureus. Briefly: Antibacterial activity against Vancomycin-resistant Staphylococcus aureus 2. The assay is classed as functional.
The target of assay [6] is T2, Penicillin-binding protein 1 (Staphylococcus aureus, UniProt Q53725).
T2 sequence (Q53725 whole entry): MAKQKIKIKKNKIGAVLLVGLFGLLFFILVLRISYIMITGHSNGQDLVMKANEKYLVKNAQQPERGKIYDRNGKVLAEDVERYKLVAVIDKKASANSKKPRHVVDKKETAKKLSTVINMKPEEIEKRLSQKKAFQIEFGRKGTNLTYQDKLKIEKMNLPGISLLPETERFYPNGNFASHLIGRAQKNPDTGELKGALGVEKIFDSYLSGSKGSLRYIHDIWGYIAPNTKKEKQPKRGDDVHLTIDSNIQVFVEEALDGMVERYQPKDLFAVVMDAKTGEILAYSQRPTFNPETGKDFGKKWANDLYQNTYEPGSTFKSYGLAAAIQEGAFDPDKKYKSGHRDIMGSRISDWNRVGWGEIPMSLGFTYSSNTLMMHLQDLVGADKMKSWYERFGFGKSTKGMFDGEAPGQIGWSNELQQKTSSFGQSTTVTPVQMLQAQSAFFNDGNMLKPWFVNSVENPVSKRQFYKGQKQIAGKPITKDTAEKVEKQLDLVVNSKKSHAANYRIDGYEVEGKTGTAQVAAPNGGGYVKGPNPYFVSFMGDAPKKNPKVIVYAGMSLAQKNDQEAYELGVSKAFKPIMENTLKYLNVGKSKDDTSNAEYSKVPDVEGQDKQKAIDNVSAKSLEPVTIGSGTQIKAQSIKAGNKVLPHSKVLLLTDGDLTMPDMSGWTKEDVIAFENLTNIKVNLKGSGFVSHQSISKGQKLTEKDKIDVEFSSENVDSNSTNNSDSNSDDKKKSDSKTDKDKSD
The assay is described as follows: Inhibition of Staphylococcus aureus PBP1.

Assay [7] deals with Staphylococcus aureus. The assay is described as follows: Antibacterial activity against methicillin sensitive Staphylococcus aureus NRS70. The assay is classed as functional.
Assay [8] has as its system Staphylococcus aureus. Briefly: Antibacterial activity against Vancomycin-resistant Staphylococcus aureus 1. Type of assay: functional.
The test system of assay [9] is Staphylococcus aureus. Briefly: Antibacterial activity against methicillin sensitive Staphylococcus aureus NRS128. Type of assay: functional.
In assay [10] the test system is Staphylococcus aureus. Briefly: Antibacterial activity against methicillin sensitive Staphylococcus aureus NRS120. Type of assay: functional.
The subject of assay [11] is Staphylococcus aureus. Briefly: Antibacterial activity against methicillin sensitive Staphylococcus aureus NRS123. Type of assay: functional.
For assay [12], the system named is Staphylococcus aureus. The assay is described as follows: Antibacterial activity against methicillin sensitive Staphylococcus aureus NRS119. Type of assay: functional.
The test system of assay [13] is Staphylococcus aureus. The assay is described as follows: Antibacterial activity against methicillin sensitive Staphylococcus aureus NRS100. Type of assay: functional.
Assay [14] has as its system Staphylococcus aureus. The assay is described as follows: Antibacterial activity against methicillin sensitive Staphylococcus aureus ATCC 29213. The assay is classed as functional.

Converted amounts (≈) assume the structure as drawn.

Broadly, the IC50 is the point on the concentration scale where inhibition reaches its midpoint. A higher IC50 goes with weaker potency. In turn, `CC1(C)S[C@@H]2[C@H](N)C(=O)N2[C@H]1C(=O)O` showed an IC50 on MecA of 7 mM.

The term MIC denotes the smallest concentration in the dilution series that meets the test's criterion for growth inhibition. Read a low MIC as greater potency. For the compound `C[C@@H](NC(=O)c1c(F)cccc1-c1ccccc1)B(O)O`, the MIC against Staphylococcus aureus [1] and with Staphylococcus aureus [2] was 32 µg/mL (≈ 111 µM) each time.

Turning to `C=C1CCC[C@@H]2Nc3ccc(Br)cc3[C@]12CCNS(=O)(=O)c1ccc(Cl)cc1`, the “fold change (FC)” value in the assay on Staphylococcus aureus [3] was found to be 128.

Consider `Oc1ccc(-c2nc(-c3ccc(Oc4ccccc4)cc3)no2)cc1`, for which the MIC against Enterococcus faecium and in the assay with Staphylococcus aureus [4] was 1 µg/mL (≈ 3.03 µM) throughout.

Turning to `Oc1ccc(-c2nc(-c3ccc(Oc4ccc(C(F)(F)F)cc4)cc3)no2)cc1`, the MIC in the assay on Enterococcus faecium and against Staphylococcus aureus [4] was 1 µg/mL (≈ 2.51 µM) each time.

As to `Nc1ccc(-c2nc(-c3ccc(Oc4ccc(C(F)(F)F)cc4)cc3)no2)cc1`, the MIC in the assay with Enterococcus faecium and in the assay with Staphylococcus aureus [4] was 1 µg/mL (≈ 2.52 µM) each time.

In the case of `N#Cc1ccc(/C=C/c2nc3ccccc3c(=O)n2-c2cccc(C(=O)O)c2)cc1`, the MIC with Staphylococcus aureus [5], against Staphylococcus aureus [7], against Staphylococcus aureus [8], in the assay with Staphylococcus aureus [9], in the assay on Staphylococcus aureus [10] and with Staphylococcus aureus [11] was 2 µg/mL (≈ 5.08 µM) throughout. The MIC against Staphylococcus aureus [12], in the assay on Staphylococcus aureus [13] and against Staphylococcus aureus [14] was 2 µg/mL (≈ 5.08 µM) throughout. In addition, the IC50 in assay [6] was 78 µg/mL (≈ 198 µM); on MecA it was 0.356 mM.

Consider `C#Cc1ccc(/C=C/c2nc3ccccc3c(=O)n2-c2cccc(C(=O)O)c2)cc1`, for which the minimal inhibitory concentration (MIC) in the assay with Staphylococcus aureus [4] was found to be 0.03 µg/mL (≈ 0.0764 µM).

`O=c1c2ccccc2nc(/C=C/c2ccc([N+](=O)[O-])cc2)n1-c1cccc(O)c1` showed an MIC against Staphylococcus aureus [14] of 2 µg/mL (≈ 5.19 µM).

With `CC(=O)/C(=C/c1cn(CC(=O)N2CCCCC2)c2ccccc12)n1cc([N+](=O)[O-])nc1C`, it took 1 µg/mL (≈ 2.3 µM) to inhibit growth against Staphylococcus aureus [4] (MIC).
